Entries after “also recorded” stand apart in the source; their conditions may differ.
Assays:
Purified tubulin = test: Inhibition of microtubule assembly by spectrophotometry, cell free system; assay type: biochemical, calf; conditions: cell free tubulin; for inhibition of microtubule assembly: 1 μg/ml (3.3 μM for 3-BAABU)
Protocol: Purified tubulin was purchased from Sigma (St. Louis, Mo.). The effects of compounds 6, 7, 8, 9, paclitaxel and vinblastine on the microtubule assembly-disassembly process were determined using conditions recommended by the vendor. For assembly inhibition, 100 μl tubulin solution (500-600 μg protein/ml) was mixed gently with 400 μl reaction buffer containing 0.1 M MES (2-[N-morpholino]ethane sulfonic acid), 1 mM EGTA ([…]-N,N,N′,N′-tetraacetic acid), 0.5 mM MgCl2, 0.1 mM EDTA and 2.5 M gycerol at 37° C. Compounds 6, 7, 8, and 9 were next added to each sample at final concentrations of 10, 10, 1 and 1 μg/ml, respectively. After adding GTP to each sample to a final concentration of 1 mM, the microtubule assembly process was monitored by measuring the change of absorbance (OD) at 350 nm on a spectrophotometer (Ultrospec III, Pharmacia LKB, Uppsala, Sweden). A completed assembly process was observed within 40 min at room temperature. For disassembly inhibition, compounds 6, 7, 8, and 9 were added, at the above concentrations, to covets with repolymerized microtubules as described above, and incubated in melting ice. Changes of absorbance (OD) were monitored at 350 nm for 30 min until the OD values in the controls returned to the starting level, i.e., when the assembly-disassembly cycle was completed.
Purified tubulin from calf brain was purchased from Sigma (St. Louis, Mo.). The effects of 3-BAABU (3-bromoacetoamido, benzoylurea) on the microtubule assembly-disassembly process were determined using the conditions recommended by the vendor. For assembly inhibition, 100 μl tubulin solution (500-600 μg protein/ml) was mixed gently with 400 μl reaction buffer containing 0.1 M MES, 1 mM EGTA, 0.5 mM MgCl2, 0.1 mM EDTA and 2.5 M glycerol at 37° C. 3-BAABU, paclitaxel or vinblastine were then added to each sample cuvet at final concentrations of 3.3, 23 or 22 μM, respectively. After adding GTP to each sample to a final concentration of 1 mM, the microtubule assembly process was monitored by measuring the change of absorbance (OD) every 5 min at 350 nm on a spectrophotometer (Ultrospec III, Pharmacia LKB, Uppsala, Sweden). A completed assembly process was observed within 40 min at room temperature. For disassembly inhibition, 3-BAABU (3.3 μM), paclitaxel (23 μM) or vinblastine (22 μM) was added to a cuvet with repolymerized microtubules according to the method described above, and incubated in melting ice. Changes of absorbance (OD) were monitored at 350 nm for 30 min until the OD values in the controls returned to the starting level, i.e., completion of the assembly-disassembly cycle. Solvent solutions were used as control and had no effect in either the assembly or disassembly process.

[1] = LD50 (lethal dose) in mice; conditions: mouse, in vivo, ip
From the text: (§1) The in vivo efficacy of 3-BAABU and 3-IAABU of the present invention was asssessed in a murine model, along with known anti-tubule agents, vinblastine and paclitaxel, as a comparative standard. Approximately 10^6 P338 leukemia lymphoma cells/mouse were implanted intra-peritoneal (i.p.) into male C57 BL/6JX mice (Jackson Laboratories, N.Y.). On days 2 and 8 post-implantation, drugs were administrated i.p. at the following concentration ranges: 3-BAABU from 16.6 to 116 μmole/kg, 3-IAABU from 14.4 to 101 μmole/kg, vinblastine from 2.2 to 20 μmole/kg and paclitaxel from 28 to 57 μmole/kg.
(§2) Both control and treated animals were examined for ascitic tumor burden daily for 35 days. […] Therapeutic index was defined as the ratio of LD50 (lethal dose) to ED50 (effective dose).

[2] = system: P338 leukemia lymphoma cells; test: Survival and ED50 in mice implanted i.p. with P338 lymphoma; assay type: in vivo, male C57 BL/6JX mice; conditions: for ED50: P338 leukemia lymphoma i.p. in mice, drug i.p. on days 2 and 8
Protocol: FIG. 9 is a plot graph of the survival rate of male C57 BL/6JX mice implanted (i.p.) with P338 lymphoma, from 10 to 40 days after implantation. Two groups were used for the study: a control group of ten and a test group of ten that were treated with 20 mg/kg, (i.p.) of compound 8 at 2 and 8 days post-implantation.
as §1, §2

SP cells = test: Block of mitosis, morphology by microscopy; assay type: cell-based, human; parameters: key to Block of Mitosis: +Block of mitosis was observed; −no mitotic blocking
Protocol: (§3) All cell lines, with the exception of human SP cells, a biphenotypic leukemic cell line (reference 10 & 11), were obtained from the American Tissue Culture Collection (Rockville, Md.) and were cultured under conditions recommended by the vendor. EL4 murine leukemia lymphoma (as suspension) and B16 mouse melanoma (as monolayer) cell lines were cultivated in RPMI-1640 medium supplemented with 10% fetal bovine serum (FBS), penicillin (250 μ/ml) and streptomycin (250 μml); MOT, a non-tumor proliferative myocardial cell line from rat and NIH 3T3, a non-malignant and proliferative fibroblast cell line from mouse were both cultured as monolayers in Dulbecco's Modified Eagle's Medium with 10% heat inactivated calf serum. CEM, a human acute T-cell leukemic cell line, was cultured as a suspension in Iscove's Dulbecco's Medium with 10% heat inactivated fetal calf serum and antibiotics. PC-3 cells, a human prostate cancer line, was cultured as monolayers in RPMI-1640 with 10% FBS. SP cells were cultured in Minimum Eagle's Medium plus 10% FBS. Human peripheral blood lymphocytes (PBL) were isolated from whole blood of healthy individuals by Ficoll-Hypaque gradient method. Isolated PBL were maintained in RPMI-1640 in the presence of 10% homologous plasma at 37° C. All cells were incubated at 37° C. in 5% C02. Cells in exponential growth were used.
(§4) Cell samples on slides were prepared by a Cytospin centrifuge (Shandon Southern Products Ltd, England) at 700 g for 5 min. The slides were air dried, fixed in methanol and stained with Giemsa (Harleco, N.J.) at room temperature for 15 min. Alterations of nuclei, membranes and morphological features were observed by light microscopy. Cells in mitotic phase were recognized by the appearance of their chromosomes dispersed in the cytoplasm, and by the disappearance of nuclear membrane. Apoptotic-cells were identified using previously defined criteria, i.e., shrinkage in cell size, chromatin condensation and fragmentation of the nucleus into discrete masses (references 2 & 3). Necrotic cells were differentiated from apoptotic cells by observing swollen cytoplasm and the disappearance of cell membrane prior to the destruction of the nucleus.

PC-3 cells = test: Block of mitosis, morphology by microscopy; assay type: cell-based, human; parameters: key to Block of Mitosis: +Block of mitosis was observed; −no mitotic blocking
Protocol: as §3, §4

B16 mouse melanoma = test: Block of mitosis, morphology by microscopy; assay type: cell-based; parameters: key to Block of Mitosis: +Block of mitosis was observed; −no mitotic blocking
Protocol: as §3, §4

SMILES | inhibition of microtubule assembly (Purified tubulin) | LD50 [1] | ED50 [2] | morphologic effect (SP cells; SP human lymphoid leukemic cells, 0.025 μg/ml, 24 hr at 37° C.) | Block of Mitosis (SP cells; SP, Human MDS, 37° C. for 48 hr, arrest = mitotic cells >50% vs controls) | Block of Mitosis (PC-3 cells; PC-3, Human Prostate Cancer, 37° C. for 48 hr) | morphologic effect (PC-3 cells; PC-3 human prostate cancer cells, 0.1 μg/ml, 24 hr at 37° C.) | inhibition of microtubule assembly (Purified tubulin; listed as 3-BAABU) | Survival IL % ([2]; P338 Lymphoma (i.p.), 20 mg/kg ip on days 2 & 8) | Survival Mean ± SD ([2]; P338 Lymphoma (i.p.), 20 mg/kg ip on days 2 & 8, control 18.6 ± 1.1) | Block of Mitosis (B16 mouse melanoma; B16, Murine melanoma, 37° C. for 48 hr) | morphologic effect (B16 mouse melanoma; murine melanoma cells, 0.25 μg/ml, 24 hr at 37° C.) | effect on microtubule assembly (Purified tubulin; up to 10 μg/ml)
NC(=O)NC(=O)c1cccc(NC(=O)CI)c1 [Compound 9, 3-Iodoacetoamido, benzoylurea] | complete inhibition; also recorded: completely inhibited | about 90 μmole/kg | 26 µmol/kg |  |  |  |  |  |  |  |  |  | 
NC(=O)NC(=O)c1cccc(NC(=O)CBr)c1 [Compound 8, 3-Bromoacetoamido, benzoylurea] | complete inhibition; also recorded: completely inhibited | about 90 μmole/kg | 27 µmol/kg | induced mitotic arrest | + | + | induced mitotic arrest | Complete inhibition | 54% | 28.6 ± 5.2 | + | induced mitotic arrest | 
NC(=O)NC(=O)c1cccc(NC(=O)CCl)c1 [Compound 7, 3-Chloroacetoamido, benzoylurea] |  |  |  |  |  |  |  |  |  |  |  |  | very weak inhibitory effect; also recorded: no effect

From US6590123B2, “Aminobenzoic acid derivatives having anti-tumorigenic activity, methods of making and using the same” (Mount Sinai School of Medicine of New York University, priority 1998, dated 2003)
